Results: patent US20170360875A1 (priority 2014, published 2017)
Values joined by “and” are separate entries in the source; they are usually repeats but may differ in a detail not shown here. Equal entries are not always repeated. Where two headings read alike, the source gives them in different places. Ends that are not written are not given here.

Assays:
FcγIIb [1] = assay type: binding
FcγIIIa [2] = assay type: binding
C1q = assay type: binding, human
hepatitis A virus [3] = assay: reverse ELISA; PAP IC without inhibitor on plate coated with HAV 1:10; average of three experiments
[4] = target: hepatitis C virus core protein (hepatitis C virus); assay: reverse ELISA; PAP IC without inhibitor on plate coated with 5 µg HCV core protein; average of three experiments
[5] = target: recombinant Sudan Ebolavirus glycoprotein (IBT Bioservices, Catalogue Number 0501-015) (Sudan Ebolavirus)
[6] = target: Influenza A/MAL/NY/6750/78 H2N2 virus; assay: reverse ELISA; PAP IC without inhibitor on plate coated with IAV 1:10
[7] = target: Influenza A/MAL/NY/6750/78 H2N2 virus; assay: reverse ELISA; PAP IC without inhibitor on plate coated with IAV 1:100
FcγIIb [8] = target: FcγIIb (UniProt P31994); assay: reverse ELISA; PAP IC without inhibitor on plate coated with FcγIIb/c
Sequence of UniProt P31994 (P31994 46-217 limits assumed): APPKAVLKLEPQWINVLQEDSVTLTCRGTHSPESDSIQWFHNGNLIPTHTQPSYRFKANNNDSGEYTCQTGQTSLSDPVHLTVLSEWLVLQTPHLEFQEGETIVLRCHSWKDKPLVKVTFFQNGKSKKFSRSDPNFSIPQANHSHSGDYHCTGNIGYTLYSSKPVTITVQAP

hepatitis A virus [9] = assay: reverse ELISA; PAP IC without inhibitor on plate coated with HAV 1:100; average of three experiments
FcγIIa (R131 allele) = FcγIIa (R131 allele) (UniProt P12318)
FcγIIb [10] = target: FcγIIb (UniProt P31994); assay: reverse ELISA; PAP IC without inhibitor on plate coated with FcγIIb
FcγIIIb (NA2) [11] = target: FcγIIIb (NA2) (UniProt O75015); assay: reverse ELISA; PAP IC without inhibitor on plate coated with FcγIIIb (NA2)
Sequence of UniProt O75015 (O75015 17-200 N65S): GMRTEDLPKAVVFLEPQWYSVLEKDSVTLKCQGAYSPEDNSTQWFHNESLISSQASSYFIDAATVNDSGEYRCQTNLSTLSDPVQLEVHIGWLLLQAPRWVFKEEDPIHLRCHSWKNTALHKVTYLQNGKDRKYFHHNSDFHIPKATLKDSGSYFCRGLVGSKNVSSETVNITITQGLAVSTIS

FcγIIIa [12] = target: FcγIIIa (UniProt P08637); assay: reverse ELISA; PAP IC without inhibitor on plate coated with FcγIIIa
Sequence of UniProt P08637 (P08637 17-208): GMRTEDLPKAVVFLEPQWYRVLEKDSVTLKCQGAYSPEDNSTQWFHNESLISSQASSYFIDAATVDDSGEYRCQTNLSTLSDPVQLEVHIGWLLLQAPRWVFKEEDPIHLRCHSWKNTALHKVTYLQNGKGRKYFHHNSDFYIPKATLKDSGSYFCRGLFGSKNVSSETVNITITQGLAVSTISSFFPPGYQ

[13] = target: human C1q (Quidel Corp.) (human) (UniProt P02745); assay: reverse ELISA; PAP IC without inhibitor on C1q-coated plate
Sequence of UniProt P02745 (P02745 23-245 limits assumed, chain 1 of 3): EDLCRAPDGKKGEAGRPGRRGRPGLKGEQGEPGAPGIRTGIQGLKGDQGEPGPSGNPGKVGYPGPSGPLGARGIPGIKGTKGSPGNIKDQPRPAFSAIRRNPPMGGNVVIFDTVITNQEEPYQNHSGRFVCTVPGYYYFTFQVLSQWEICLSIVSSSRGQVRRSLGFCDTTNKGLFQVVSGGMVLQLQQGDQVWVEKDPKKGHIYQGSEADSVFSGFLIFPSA
Sequence of UniProt P02745 (P02746 28-253 limits assumed, chain 2 of 3, further chain): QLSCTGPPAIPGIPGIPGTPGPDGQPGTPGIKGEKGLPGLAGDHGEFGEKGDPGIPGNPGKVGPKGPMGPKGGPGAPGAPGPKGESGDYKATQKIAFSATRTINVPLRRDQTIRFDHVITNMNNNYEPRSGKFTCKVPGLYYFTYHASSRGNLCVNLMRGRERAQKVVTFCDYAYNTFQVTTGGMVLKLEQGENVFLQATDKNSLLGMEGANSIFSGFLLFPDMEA
Sequence of UniProt P02745 (P02747 29-245 limits assumed, chain 3 of 3, further chain): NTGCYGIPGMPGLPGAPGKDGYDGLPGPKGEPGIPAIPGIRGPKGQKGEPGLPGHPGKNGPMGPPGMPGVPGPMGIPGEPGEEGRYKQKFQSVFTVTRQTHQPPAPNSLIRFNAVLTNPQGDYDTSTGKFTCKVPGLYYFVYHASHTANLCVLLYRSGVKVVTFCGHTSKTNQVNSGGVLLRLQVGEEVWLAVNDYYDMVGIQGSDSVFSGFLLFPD

FcγI [14] = target: FcγI (UniProt P12314); assay: reverse ELISA; PAP IC without inhibitor on plate coated with FcγI
Sequence of UniProt P12314 (P12314 16-288 limits assumed): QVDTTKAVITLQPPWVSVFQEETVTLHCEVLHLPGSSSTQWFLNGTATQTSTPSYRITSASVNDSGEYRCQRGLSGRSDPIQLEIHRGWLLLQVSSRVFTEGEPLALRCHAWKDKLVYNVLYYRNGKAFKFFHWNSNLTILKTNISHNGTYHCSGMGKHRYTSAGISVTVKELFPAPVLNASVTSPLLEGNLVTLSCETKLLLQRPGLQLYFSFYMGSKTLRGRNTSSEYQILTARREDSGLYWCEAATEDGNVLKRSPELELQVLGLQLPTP

FcγIIa (H131 allele) [15] = target: FcγIIa (H131 allele) (UniProt P12318)
[16] = target: hepatitis C virus core protein (hepatitis C virus); assay: reverse ELISA control; HRP without antibody on plate coated with 5 µg HCV core protein
[17] = target: Influenza A/MAL/NY/6750/78 H2N2 virus; assay: reverse ELISA control; HRP without antibody on plate coated with IAV 1:100
[18] = target: Influenza A/MAL/NY/6750/78 H2N2 virus; assay: reverse ELISA control; HRP without antibody on plate coated with IAV 1:10
hepatitis A virus [19] = assay: reverse ELISA control; HRP without antibody on plate coated with HAV 1:10
hepatitis A virus [20] = assay: reverse ELISA control; HRP without antibody on plate coated with HAV 1:100
[21] = system: hepatitis C virus core protein; assay type: binding; conditions: NB406 10 mg/mL
FcγI [22] = assay type: binding
hepatitis A virus [23] = assay type: binding; conditions: for 1:10 HAV (OD 405 nm): 1:10 virus dilution, IC alone 0.997; for 1:100 HAV (OD 405 nm): 1:100 virus dilution, IC alone 0.953
FcγIIIb (NA2) [24] = assay type: binding
FcγIIb/c = assay type: binding
FcγIIa (H131 allele) [25] = assay type: binding, human
[26] = system: Sudan Ebolavirus Glycoprotein (GP); assay type: binding
[27] = system: Influenza A/MAL/NY/6750/78 H2N2 virus; conditions: for Percent Inhibition, 1:10 IAV / Percent Inhibition, 1:100 IAV: /MAL/NY/6750/78 H2N2 virus
[28] = NB406 10 mg/mL, average of three experiments

In the case of “Asp-Cys-Ala-Trp-His-Leu-Gly-Glu-Leu-Val-Trp-Cys-Thr [SEQ ID NO:2]”, the “OD405 FcγIIb” value (FcγIIb [1]) is reported as 0.532, the “OD405 FcγIIIa” value (FcγIIIa [2]) is reported as 0.741 and the “OD 405 nm” value (C1q) is reported as 1.100.

With “APPCAFHLGELVWCT (cysteine pairing not given here) [SEQ ID NO:18]” the “OD405 FcγIIb” value (FcγIIb [1]) was 0.380, the “OD405 FcγIIIa” value (FcγIIIa [2]) was 0.880 and the “OD 405 nm” value (C1q) was 0.983.

For “Asp-Cys-Ala-Phe-His-Leu-Gly-Glu-Leu-Val-Trp-Cys-Thr [SEQ ID NO:3]”, the “OD405 FcγIIb” value (FcγIIb [1]) was 0.510, the “OD405 FcγIIIa” value (FcγIIIa [2]) was 0.810 and the “OD 405 nm” value (C1q) was 0.859.

With “preformed immune complex of peroxidase-rabbit anti-peroxidase IgG (PAP complex) (from UniProt P00433 31-338)” the OD 405 nm (hepatitis A virus [3]) was 0.997 OD 405 nm, the OD 405 nm [4] was 2.75 OD 405 nm and the OD 405 nm [5] was 1.61 OD 405 nm and 1.38 OD 405 nm and 1.31 OD 405 nm. It also gave an OD 405 nm [6] of 1.94 OD 405 nm, an OD 405 nm [7] of 1.87 OD 405 nm and an OD 405 nm (FcγIIb [8]) of 2.22 OD 405 nm. For the same molecule, the OD 405 nm (hepatitis A virus [9]) was 0.953 OD 405 nm, the OD405 (FcγIIa (R131 allele)) was 1.6 OD405 and the OD405 (FcγIIb [10]) was 1.39 OD405. It also gave an OD 405 nm (FcγIIIb (NA2) [11]) of 3.06 OD 405 nm, an OD405 (FcγIIIa [12]) of 1.59 OD405 and an OD 405 nm [13] of 2.35 OD 405 nm. The OD 405 nm (FcγI [14]) was 2.33 OD 405 nm and the OD 405 nm (FcγIIa (H131 allele) [15]) was 3.51 OD 405 nm.

“horseradish peroxidase (HRP), Sigma-Aldrich P6782 (from UniProt P00433 31-338) (enzyme)” showed an OD 405 nm [16] of 0.172 OD 405 nm, an OD 405 nm [17] of 0.178 OD 405 nm and an OD 405 nm [18] of 0.163 OD 405 nm. For the same molecule, the OD 405 nm (hepatitis A virus [19]) was 0.117 OD 405 nm and the OD 405 nm (hepatitis A virus [20]) was 0.138 OD 405 nm.

With “APPCARHLGELVWCT (cysteine pairing not given here) [SEQ ID NO:16]” the “OD405 FcγIIb” value (FcγIIb [1]) was 0.768, the “OD405 FcγIIIa” value (FcγIIIa [2]) was 0.709 and the “OD 405 nm” value (C1q) was 0.567. For the same molecule, the “inhibition of C1q binding (rank in words)” value (C1q) was “next best result”.

In the case of CC(C)C[C@@H]1NC(=O)[C@H](Cc2c[nH]cn2)NC(=O)[C@H](Cc2c[nH]c3ccccc23)NC(=O)[C@H](C)NC(=O)[C@@H](NC(=O)[C@H](CC(=O)O)NC(=O)[C@@H]2CCCN2C(=O)[C@@H]2CCCN2C(=O)[C@H](C)N)CSSC[C@@H](C(=O)N[C@H](C(=O)O)[C@@H](C)O)NC(=O)[C@H](Cc2c[nH]c3ccccc23)NC(=O)[C@H](C(C)C)NC(=O)[C@H](CC(C)C)NC(=O)[C@H](CCC(=O)O)NC(=O)CNC1=O [SEQ ID NO:20], the “Percent Inhibition, 5 μg HCV Core Protein” value [21] is reported as 89.7%, the “5 μg HCV Core Protein (OD 405 nm)” value ([21]; IC alone 2.752, average of three experiments) is reported as 0.283 and the “% inhibition of IC binding, FcγI” value (FcγI [22]) is reported as 89%. For the same molecule, the “FcγI (read at 405 nm)” value (FcγI [22]) was 0.264, the “1:10 HAV (OD 405 nm)” value (hepatitis A virus [23]; NB406 1.11 mg/mL) was 0.762 and the “1:100 HAV (OD 405 nm)” value (hepatitis A virus [23]; NB406 1.11 mg/mL) was 0.774. The “1:10 HAV (OD 405 nm)” value (hepatitis A virus [23]; NB406 3.33 mg/mL) was 0.305, the “1:100 HAV (OD 405 nm)” value (hepatitis A virus [23]; NB406 3.33 mg/mL) was 0.155 and the “1:10 HAV (OD 405 nm)” value (hepatitis A virus [23]; [28]) was 0.050. For the same molecule, the “1:100 HAV (OD 405 nm)” value (hepatitis A virus [23]; [28]) was 0.055, the “prevention of binding of IC to the hepatitis A virus (in words)” value (hepatitis A virus [23]; conclusion from Table 5) was “can effectively prevent the binding of IC to the hepatitis A virus” and the “% inhibition of IC binding, FcγIIIb (NA2)” value (FcγIIIb (NA2) [24]) was 91%. For the same molecule, the “FcγIIIb (NA2) (read at 405 nm)” value (FcγIIIb (NA2) [24]) was 0.266, the “% inhibition of IC binding, FcγIIb/c” value (FcγIIb/c) was 88% and the “FcγIIb/c (read at 405 nm)” value (FcγIIb/c) was 0.266. The “inhibited binding of FcγRIIb to immune complexed IgG Fc” value (FcγIIb/c) was “more than 70%”, the “OD405 FcγIIb” value (FcγIIb [1]) was 0.496 and the “OD405 FcγIIIa” value (FcγIIIa [2]) was 0.670. For the same molecule, the “% inhibition of IC binding, FcγIIa* (H131 allele)” value (FcγIIa (H131 allele) [25]) was 94%, the “FcγIIa* (H131 allele) (read at 405 nm)” value (FcγIIa (H131 allele) [25]) was 0.209 and the “inhibited binding of FcγRIIa to immune complexed IgG Fc” value (FcγIIa (H131 allele) [25]) was “more than 70%”. The “1 ug/mL GP (OD read at 405 nm)” value [26] was 0.042 and 0.053 and 0.071, the “3 ug/mL GP (OD read at 405 nm)” value [26] was 0.042 and 0.046 and 0.081 and the “Percent Inhibition, 1 ug/mL GP” value [26] was 96.8% and 96.0% and 94.6%. For the same molecule, the “Percent Inhibition, 3 ug/mL GP” value [26] was 96.9% and 96.7% and 94.1%, the “Percent Inhibition, 10 ug/mL GP” value [26] was 97.1% and 96.4% and 94.1% and the “prevention of binding of IC to the Ebolavirus glycoprotein (in words)” value [26] was “can effectively prevent the binding of IC to the Ebolavirus glycoprotein”. The “OD 405 nm” value (C1q) was 0.389, the “inhibition of C1q binding (rank in words)” value (C1q) was “greatest inhibition of C1q binding” and the “prevention of binding of IC to the influenza virus (in words)” value [27] was “can effectively prevent the binding of IC to the influenza virus”. For the same molecule, the “Percent Inhibition, 1:10 IAV” value ([27]; 0.37 mg/mL) was 63.5%, the “Percent Inhibition, 1:100 IAV” value ([27]; 0.37 mg/mL) was 61.6% and the “Percent Inhibition, 1:10 IAV” value ([27]; 1.11 mg/mL) was 89.5%. For the same molecule, the “Percent Inhibition, 1:100 IAV” value ([27]; 1.11 mg/mL) was 88.7%, the “Percent Inhibition, 1:10 IAV” value ([27]; 3.33 mg/mL) was 96.6% and the “Percent Inhibition, 1:100 IAV” value ([27]; 3.33 mg/mL) was 96.0%. The “Percent Inhibition, 1:10 IAV” value ([27]; 10 mg/mL) was 97.6%, the “Percent Inhibition, 1:100 IAV” value ([27]; 10 mg/mL) was 97.0% and the “prevention of binding of IC to the Ebola virus (in words)” value (Sudan Ebolavirus (SEBOV)) was “can effectively prevent the binding of IC to the Ebola virus”. For the same molecule, the “Percent Inhibition, 1:100 SEV” value (Sudan Ebolavirus (SEBOV); 1 mg/mL) was 77.6%, the “Percent Inhibition, 1:1000 SEV” value (Sudan Ebolavirus (SEBOV); 1 mg/mL) was 64.8% and the “Percent Inhibition, 1:10000 SEV” value (Sudan Ebolavirus (SEBOV); 1 mg/mL) was 58.6%. For the same molecule, the “Percent Inhibition, 1:100 SEV” value (Sudan Ebolavirus (SEBOV); 3 mg/mL) was 95.1%, the “Percent Inhibition, 1:1000 SEV” value (Sudan Ebolavirus (SEBOV); 3 mg/mL) was 94.6% and the “Percent Inhibition, 1:10000 SEV” value (Sudan Ebolavirus (SEBOV); 3 mg/mL) was 94.6%. The “Percent Inhibition, 1:100 SEV” value (Sudan Ebolavirus (SEBOV); 10 mg/mL) was 96.6%, the “Percent Inhibition, 1:1000 SEV” value (Sudan Ebolavirus (SEBOV); 10 mg/mL) was 96.3% and the “Percent Inhibition, 1:10000 SEV” value (Sudan Ebolavirus (SEBOV); 10 mg/mL) was 96.3%.

With “APPCAWHLGELVWCT (cysteine pairing not given here) [SEQ ID NO:14]” the “OD405 FcγIIb” value (FcγIIb [1]) was 0.562, the “OD405 FcγIIIa” value (FcγIIIa [2]) was 0.530 and the “OD 405 nm” value (C1q) was 1.148.
